The results in this text go back to ChEMBL document CHEMBL5331091, “Design, synthesis and evaluation of antitumor activity of selective PRMT6 inhibitors” (Eur J Med Chem, 2023).

Test [1] concerns the target Protein arginine N-methyltransferase 6 (Homo sapiens, UniProt Q96LA8).
Description: Inhibition of PRMT6 (unknown origin) by AlphaLISA assay in vitro assay
For test [2], the system named is MDA-MB-435. In words: Antiproliferative activity against human MDA-MB-435 cells for 3 days by MTT assay. The settings on record: MDA-MB-435, 72 h. In general terms: Tetrazolium assays rely on reduction of a dye to a coloured formazan, in cell work by metabolically active cells.
In test [3] the test system is MDA-MB-435. In words: Antiproliferative activity against human MDA-MB-435 cells for 5 days by MTT assay. Particulars: MDA-MB-435, 120 h.
Test [4] has as its system MDA-MB-435. The test is described as follows: Antiproliferative activity against human MDA-MB-435 cells for 7 days by MTT assay. The settings on record: MDA-MB-435, 168 h.
For test [5], the system named is HCC827. The test is described as follows: Antiproliferative activity against human HCC827 cells for 3 days by MTT assay. Particulars: HCC827, 72 h.
Test [6] concerns HCC827. The test is described as follows: Antiproliferative activity against human HCC827 cells for 5 days by MTT assay. Particulars: HCC827, 120 h.
Test [7] relates to HCC827. The test is described as follows: Antiproliferative activity against human HCC827 cells for 7 days by MTT assay. Particulars: HCC827, 168 h.
Test [8] has as its system HCC827. In words: Induction of apoptosis in human HCC827 cells assessed as early apoptotic cells at 40 uM for 3 days by Annexin V and PI staining based flow cytometric analysis (reference value: 0.44%). The settings on record: time 3 day. In kind it is functional. (A flow cytometer gives signals particle by particle.)
For test [9], the system named is HCC827. In words: Induction of apoptosis in human HCC827 cells assessed as late apoptotic cells at 40 uM for 3 days by Annexin V and PI staining based flow cytometric analysis (reference value: 0.05%). In kind it is functional. The settings on record: time 3 day.
Test [10] has as its system HCC827. The test is described as follows: Induction of apoptosis in human HCC827 cells assessed as necrotic cells at 40 uM for 3 days by Annexin V and PI staining based flow cytometric analysis (reference value: 0.65%). Type of test: functional. Particulars: time 3 day.
For test [11], the system named is MDA-MB-435. In words: Induction of apoptosis in human MDA-MB-435 cells assessed as early apoptotic cells at 40 uM for 3 days by Annexin V and PI staining based flow cytometric analysis (reference value: 0.38%). In kind it is functional. Particulars: time 3 day.
Test [12] concerns MDA-MB-435. The test is described as follows: Induction of apoptosis in human MDA-MB-435 cells assessed as late apoptotic cells at 40 uM for 3 days by Annexin V and PI staining based flow cytometric analysis (reference value: 0.45%). Type of test: functional. The settings on record: time 3 day.
In test [13] the test system is MDA-MB-435. The test is described as follows: Induction of apoptosis in human MDA-MB-435 cells assessed as necrotic cells at 40 uM for 3 days by Annexin V and PI staining based flow cytometric analysis (reference value: 0.61%). Type of test: functional. The settings on record: time 3 day.

Sequence of Protein arginine N-methyltransferase 6 (Q96LA8 whole entry): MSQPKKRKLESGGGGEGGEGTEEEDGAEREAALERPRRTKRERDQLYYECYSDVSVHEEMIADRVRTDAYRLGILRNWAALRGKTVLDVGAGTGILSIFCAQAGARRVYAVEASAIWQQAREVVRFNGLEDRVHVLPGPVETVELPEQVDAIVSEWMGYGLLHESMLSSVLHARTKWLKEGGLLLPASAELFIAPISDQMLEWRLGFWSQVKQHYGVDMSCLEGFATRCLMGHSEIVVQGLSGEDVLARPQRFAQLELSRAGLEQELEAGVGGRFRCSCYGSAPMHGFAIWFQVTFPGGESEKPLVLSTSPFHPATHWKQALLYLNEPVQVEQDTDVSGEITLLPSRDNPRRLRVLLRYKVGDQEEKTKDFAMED

In the case of `CN(CCN)Cc1cncc(-c2cccc(NS(=O)(=O)C3CC3)c2)c1`, the IC50 in [1] amounted to 2.97 µM.

Take `CN(CCN)Cc1cncc(-c2cccc(NS(=O)(=O)c3ccc([N+](=O)[O-])cc3)c2)c1`: in test [1], the IC50 is over 5 µM. The same measure, in the same setting: as for `CN(CCN)Cc1cncc(-c2ccc(CN3CCOCC3)cc2)c1`, the figure is 5.24 µM. In turn, `CN(CCN)C(=O)c1cncc(-c2ccc(NS(=O)(=O)C3CC3)cc2)c1` gave an IC50 in test [1] of over 5 µM. On to `CNCCN(C)Cc1c[nH]nc1-c1ccc(O[C@H]2C[C@H](OCCC3CCOCC3)C2)cc1`, for which the IC50 is 94.7 µM in the test on MDA-MB-435 [2]; 90.4 µM in the test with MDA-MB-435 [3]; 1.1 µM with MDA-MB-435 [4]; over 100 µM in the test on HCC827 [5]; 8.57 µM with HCC827 [6]; 4.15 µM in the test on HCC827 [7]. In addition, in test [1], half-maximal inhibition (IC50) was put at 0.0071 µM. For the same compound, the Activity in the test with HCC827 [8] was found to be 3.11%; in the test on HCC827 [9], 6.69%; with HCC827 [10], 3.65%; in the test on MDA-MB-435 [11], 0.93%; with MDA-MB-435 [12] it was 2.82%; in the test with MDA-MB-435 [13], 0.64%. In turn, `CNCCN(C)Cc1cncc(-c2cccc(N(S(=O)(=O)c3ccc(C(F)(F)F)cc3)S(=O)(=O)c3ccc(C(F)(F)F)cc3)c2)c1` yielded an IC50 in test [1] of over 5 µM. Take `CNCCN(C)Cc1ccnc(-c2ccc(NS(=O)(=O)C3CC3)cc2)c1`: the IC50 in test [1] is 0.03 µM.

In the case of `COc1cc(OC)cc(-c2cncc(CN(C)CCN)c2)c1`, the IC50 in test [1] is over 10 µM. For `CNCCN(C)Cc1cncc(-c2cccc(NS(=O)(=O)Cc3ccccc3)c2)c1`, in test [1], the IC50 is over 5 µM. Take `CNCCN(C)Cc1cncc(-c2cccc(NC(=O)C(C)C)c2)c1`: it took 1.59 µM to reach half-maximal inhibition in test [1] (IC50). Still for that read-out and setting: as for `CNCCN(C)Cc1cncc(-c2cccc(NS(=O)(=O)c3ccc(C(F)(F)F)cc3)c2)c1`, the figure is over 5 µM; as for `Nc1ncnc2c1ncn2[C@@H]1O[C@H](CSCC[C@H](N)C(=O)O)[C@@H](O)[C@H]1O` [S-ADENOSYLHOMOCYSTEINE], 2.18 µM. With `CNCCN(C)Cc1ccncc1-c1ccc(NS(=O)(=O)C2CC2)cc1`, the IC50 in test [1] stood at 3.09 µM. The compound `CN(CCN)Cc1cncc(-c2ccc(NS(=O)(=O)C3CC3)cc2)c1` came in with a half-maximal inhibitory concentration (IC50) in test [1] of 1.8 µM.

As for `CNCCN(C)Cc1cncc(-c2cccc(NS(=O)(=O)c3ccc(C)cc3)c2)c1`, the half-maximal inhibitory concentration (IC50) in [1] is over 5 µM.

With `NCCNC(=O)c1cncc(-c2ccc(NS(=O)(=O)C3CC3)cc2)c1`, the IC50 in [1] was over 5 µM. As to `CNCCN(C)Cc1cncc(-c2ccc(NS(=O)(=O)C(F)(F)F)cc2)c1`, half-maximal inhibition in test [1] (IC50) required 0.213 µM. `CN(CCN)Cc1cncc(-c2cccc(NS(=O)(=O)N(C)C)c2)c1` registered an IC50 in [1] of 4.4 µM.

`CNCCN(C)Cc1cncc(-c2cccc(NS(=O)(=O)C(F)(F)F)c2)c1`: in test [1], the IC50 came to 0.684 µM. For the compound `CNCCN(C)Cc1cncc(-c2ccc(NC(=O)N3CCOCC3)cc2)c1`, in test [1], the concentration for half-maximal inhibition (IC50) came out at 1.35 µM.

In the case of `CNCCN(C)C(=O)c1cncc(-c2ccc(NS(=O)(=O)C3CC3)cc2)c1`, in test [1], the IC50 was over 5 µM. `CNCCN(C)Cc1cncc(-c2cccc(NS(=O)(=O)c3cnn(C)c3)c2)c1` displayed an IC50 in test [1] of over 5 µM. Still for that read-out and setting: the same measure for `CN(CCN)Cc1cncc(-c2ccc(OC(F)(F)F)cc2)c1`: 6.36 µM; for `CN(CCN)Cc1cncc(-c2cccc(NS(=O)(=O)c3cccs3)c2)c1`: over 5 µM; for `CNCCN(C)C(=O)c1cncc(-c2cccc(NS(=O)(=O)C3CC3)c2)c1`: over 5 µM. Regarding `CNCCN(C)Cc1cncc(-c2cccc(NC(=O)N3CCOCC3)c2)c1`, the IC50 in test [1] was 1.54 µM. On the same count and under the same terms, as for `CNCCN(C)Cc1cncc(-c2cccc(NS(=O)(=O)C3CC3)c2)c1`, the figure is 0.262 µM; as for `CNCCN(C)Cc1cncc(-c2cccc(NS(=O)(=O)N(C)C)c2)c1`, 2.83 µM. Still for that read-out and setting: the same measure for `CNCCN(C)Cc1cc(-c2ccc(NS(=O)(=O)C3CC3)cc2)ccn1`: 1.06 µM; for `CNCCN(C)Cc1cncc(-c2cccc(NS(=O)(=O)c3ccccc3C)c2)c1`: 1.05 µM. Still for that read-out and setting: the same measure for `CNCCN(C)Cc1cncc(-c2cccc(N(S(=O)(=O)c3ccccc3C)S(=O)(=O)c3ccccc3C)c2)c1`: over 5 µM. In the case of `CNCCN(C)Cc1cncc(-c2cccc(NS(=O)(=O)c3ccc([N+](=O)[O-])cc3)c2)c1`, in test [1], the IC50 was over 5 µM. In turn, `CNCCNC(=O)c1cncc(-c2ccc(NS(=O)(=O)C3CC3)cc2)c1` had an IC50 in test [1] of over 5 µM. Same read-out and setting: as for `CNCCN(C)Cc1cncc(-c2cccc(NS(=O)(=O)c3cccs3)c2)c1`, the figure is 2.57 µM; as for `CN(CCN)Cc1cncc(-c2cccc(NS(=O)(=O)c3cnn(C)c3)c2)c1`, over 5 µM.

The term IC50 denotes the concentration needed to halve the response being measured.
